The source of these data is patent US20240003879A1, “METHODS FOR DIAGNOSIS AND MONITORING OF TOXIC EPIDERMAL NECROLYSIS” (INSERM (INSTITUT NATIONAL DE LA SANTÉ ET DE LA RECHERCHE …, priority 2020, published 2024).

Entries after “also recorded” stand apart in the source; their conditions may differ. Read-outs that look alike come from different tables or passages of the source.

The subject of test [1] is TCRαβ Skw3 transfectant C1 (TCR of top clone of patient TEN-3). The class given is cell-based, human. Particulars: 24 h with autologous EBV-transformed B cells, no drug 2.3; for % of CD69 expression in CD3+ transfectants, Concentration 2: Allopurinol/Oxypurinol 62.5 μg/ml, Sulfamethoxazole 100 μg/ml; for % of CD69 expression in CD3+ transfectants, Concentration 3: Allopurinol/Oxypurinol 250 μg/ml, Sulfamethoxazole 200 μg/ml. The text has this: (§1) In brief, rearranged human variable TCR α- and β genes identified by TCR sequencing were synthesized by custom gene synthesis (GeneUniversal, Newark, Delaware, USA) and cloned into retroviral pMSCV Vector (Takara Bio USA Inc, Mountain View, California, USA) containing puromycin and neomycin resistance genes respectively.
(§2) Levels of CD69 expression were monitored in 10,000 CD3^+ events. Experiments were repeated at least 2 times.
(§3) Skw3 cell lines engineered for the expression of TCRs bearing Vα and Vβ chains from top clones found in patients TEN-3,-7,-10 and -15 were stimulated in vitro with EBV-transformed B cells in presence of graded doses of different drugs, or left unpulsed. […] Results from control transductants generated from Abacavir- (17D), Allopurinol-(AnWeAl) or Sulfamethoxazole- (UNO H13) allergic donors (53) (51) (7) are also shown. Bold and underlined values indicate >2 or >1.5 CD69 expression fold increase versus unpulsed cultures.

Test [2] relates to Skw3 control transductant AnWe A1 (Allopurinol-allergic donor). Briefly: TCR-transductant stimulation assay, control transductant AnWe A1. The test is classed as cell-based, human. Particulars: 24 h, heterologous EBV-transformed B cells, no drug 4.3; for % of CD69 expression in CD3+ transfectants, Concentration 2: Allopurinol/Oxypurinol 62.5 μg/ml; for % of CD69 expression in CD3+ transfectants, Concentration 3: Allopurinol/Oxypurinol 250 μg/ml.
Description: as §1, §2, §3

The test system of the next test is human CD38+CD8+ T cells. Nature of the test: Model of graft versus host versus disease (GVHD): NGS mice reconstituted with PBMCs from a healthy donor. The class given is in vivo, mouse. The text has this: NGS mice were reconstituted with 10×10^6 PBMCs from a healthy donor, and treated by two-weekly injections of an anti-CD38+ mAb (Daratumumab, at 100 or 300 microg/mouse). Control group received PBS. Results depict the percentage +/−SD of CD38+ fraction among human CD8+ T cells present in the spleen, as evaluated by flow cytometry 28 days after PBMCs injection.
NGS mice were reconstituted with 10×10^6 PBMCs from a healthy donor, and treated by two-weekly injections of an anti-CD38+ mAb (Daratumumab, at 100 or 300 microg/mouse). Control group received PBS. The percentage of humanization was measured by flow cytometry at day 5 and at day 12 after PBMC injection. It was calculated by dividing the percentage of human blood CD45+ cells/the percentage of total (mouse+human) blood CD45+ cells.
To this end, NGS mice were reconstituted with 10×10^6 peripheral blood mononuclear cells (PBMCs) from a healthy donor, and treated by two-weekly injections of daratumumab (at 100 or 300 microg/mouse). Control group received PBS. Reconstitution is generally assessed by measuring the ratio of humanization (calculated by dividing the % of human blood CD45+ cells/the % of […]). A high ratio of humanization (>50-60%) classically correlates with the appearance of GVHD symptoms, approximately 1 month after transfer.

Test [3] has as its system cytotoxic CD8+CD38+ T cells. Nature of the test: TEN preclinical model: NSG mice transferred with PBMCs from a TEN patient and given lamotrigine; daratumumab evaluation. The class given is in vivo, mouse. The settings on record: for depletion of already expanded CD38+ cells (CD8+CD38+ T cells) / depletion of cytotoxic CD8+CD38+Granzyme B+Granulysin+ T cell subset: curative mode: injections from day 29; for depletion of already expanded CD38+ cells (CD8+CD38+ T cells): blood (FIG. 16); for depletion of cytotoxic CD8+CD38+Granzyme B+Granulysin+ T cell subset: blood (FIG. 17); for formation/expansion of cytotoxic CD8+CD38+Granzyme B+Granulysin+ T cell subset: blood (FIG. 15A); for formation/expansion of CD4+CD38+ and CD8+CD38+ T cells: preventive mode: i.p. 200 mg twice weekly from day 4, blood and spleen, throughout the protocol, versus control isotype (FIG. 13); for depletion of cytotoxic cells expressing the TCRVbeta7.1+ chain (CD8+Vbeta7.1+ T cells): spleen at day 31, versus isotype-treated controls (FIG. 12). The protocol: (§4) NSG animals were adoptively transferred at day 0 with 1.10^6 millions PBMCs collected from a TEN patient, and successively administrated with lamotrigine (the culprit drug; every day, from day 4. In parallel, NSG mice were injected i.p. with […] of daratumumab or a control isotype twice weekly, starting mAb injections from day 4 (preventive mode). Results depict the kinetic of human CD8+Vbeta7.1+ T cell expansion measured by flow cytometry in the spleen of NSG mice at day 31. Results are expressed as mean and individual % of Vbeta7.1+ cell fraction among total CD8+ T cells. Ten mice per group were used in this experiment. Of note, 3.2% of Vbeta7.1+ cells were detected in CD8+ T cells at the time of cell transfer (day 0).
as §4, with “CD4+CD38+/− and CD8+CD38+/−” for “CD8+Vbeta7.1+”, “blood” for “spleen”, “throughout the protocol.” for “at day 31.”, “number” for “%”, “CD38+(A) and CD38− (B) cells/mL blood.” for “Vbeta7.1+ cell fraction among total CD8+ T cells.”, “experiment.” for “experiment. Of note, 3.2% of Vbeta7.1+ cells were detected in CD8+ T cells at the time of cell transfer (day 0).”
(§5) NSG animals were adoptively transferred at day 0 with 1.10^6 millions PBMCs collected from a TEN patient, and successively administrated with lamotrigine (the culprit drug; or vehicle by oral gavage, every day, from day 4. In parallel, NSG mice were injected i.p. with […] of daratumumab or a control isotype twice weekly, starting mAb injections from day 4 (preventive mode). Results depict the kinetic of human CD4+ and CD8+ T cell expansion measured by flow cytometry in the blood of NSG mice throughout the protocol. Results are expressed as mean and individual number of CD4+ and CD8+ T cells/mL blood. Ten mice per group were used in this experiment.
as §5, with “drug; 0.1 mg/kg/day),” for “drug; or vehicle by oral gavage,”, “human cytotoxic CD8+CD38+/−GranzymeB+Granulysin+” for “human CD4+ and CD8+”, “of CD8+CD38+GranzymeB+Granulysin+” for “of CD4+”, “and CD8+CD38+GranzymeB+Granulysin+ cells/mL blood (A). Details for total CD8+GranzymeB+Granulysin+” for “and CD8+”, “T cells are also shown (B).” for “T cells/mL blood.”
NSG animals were adoptively transferred at day 0 with 1.10^6 millions PBMCs collected from a TEN patient, and successively administrated with lamotrigine (the culprit drug; every day, from day 4. In parallel, NSG mice were injected i.p. with […] of daratumumab or a control isotype twice weekly, starting mAb treatment from day 4 (preventive mode) or from day 29 (curative mode). Results depict the kinetic of human CD8+CD38+/− T cell expansion measured by flow cytometry in the blood of NSG mice throughout the protocol. Results are expressed as mean and individual % of CD38+ and CD38− fractions among total CD8+ T cells. Five mice per group were used in this experiment. […]

In test [4] the test system is TCRαβ Skw3 transfectant C4 (TCR of top clone of patient TEN-15). The test is classed as cell-based, human. The settings on record: for CD69 expression response of transduced Skw3 cells to drug (in words): transductant from patient TEN-15; for % of CD69 expression in CD3+ transfectants, Concentration 1 / % of CD69 expression in CD3+ transfectants, Concentration 2 / % of CD69 expression in CD3+ transfectants, Concentration 3: transfectant C4, 24 h; for % of CD69 expression in CD3+ transfectants, Concentration 1: Levofloxacin (no drug 6.0) / Metronidazole (no drug 6.3) 25 μg/ml; for % of CD69 expression in CD3+ transfectants, Concentration 2: Levofloxacin (no drug 6.0) / Metronidazole (no drug 6.3) 50 μg/ml; for % of CD69 expression in CD3+ transfectants, Concentration 3: Levofloxacin (no drug 6.0) / Metronidazole (no drug 6.3) 100 μg/ml.
Description: Skw3 cell lines (Leibniz Institute DSMZ, Brunswick, Germany, (50)) were transduced as described previously (51). […] The resulting retroviruses were used to transduce the TCR-defective Skw3 cell line, which also expresses the human CD8 coreceptor. The TCR-transduced cells outgrowing in selective medium were picked, and the expression of the correct TCR α and β was further assessed by flow cytometry, using a FACS-Canto-I device (BD-Biosciences, San Jose, CA, USA). The transduced cells with stable TCR expression were selected for assessment of reactivity and specificity, which was measured by TCR-induced CD69 expression. Skw3 cell lines expressing the cognate TCR α and β chains were cocultured with autologous EBV-transformed B-lymphoblastoid cell lines (52) at 1:2 ratio at 37° C. Tested drugs were added to the cocultures with the indicated concentrations. After 24 h, cells were stained with anti-human CD3 (Biolegend) and anti-human CD69 (Biolegend) and analysed by flow cytometry. […] Experiments were repeated at least 2 times. […] Then, the productive rearranged TCRα and TCRβ chains were transduced into Skw3 cells, a TCR defective lymphoma line (28) (data not shown). After verification of sustained and stable TCR expression (data not shown), transduced Skw3 cells were stimulated with the culprit (or control) drug in presence of autologous Epstein Barr Virus (EBV)-transformed B cells generated from patient's PBMCs. The following day, we measured CD69 expression at the surface of Skw3 cells, as marker for TCR stimulation. […] Heterologous EBV-transformed B cells were also used to stimulate control transductants.

In test [5] the test system is Skw3 control transductant 17D (Abacavir-allergic donor). Briefly: TCR-transductant stimulation assay, control transductant 17D. The class given is cell-based, human. The settings on record: control 17D, 24 h, heterologous EBV-transformed B cells, no drug 1.4.
Description: Skw3 cell lines (Leibniz Institute DSMZ, Brunswick, Germany, (50)) were transduced as described previously (51). […] The resulting retroviruses were used to transduce the TCR-defective Skw3 cell line, which also expresses the human CD8 coreceptor. The TCR-transduced cells outgrowing in selective medium were picked, and the expression of the correct TCR α and β was further assessed by flow cytometry, using a FACS-Canto-I device (BD-Biosciences, San Jose, CA, USA). The transduced cells with stable TCR expression were selected for assessment of reactivity and specificity, which was measured by TCR-induced CD69 expression. Skw3 cell lines expressing the cognate TCR α and β chains were cocultured with autologous EBV-transformed B-lymphoblastoid cell lines (52) at 1:2 ratio at 37° C. Tested drugs were added to the cocultures with the indicated concentrations. After 24 h, cells were stained with anti-human CD3 (Biolegend) and anti-human CD69 (Biolegend) and analysed by flow cytometry. […] Experiments were repeated at least 2 times. […] Heterologous EBV-transformed B cells were also used to stimulate control transductants.
Setting [6] is: 300 microg/mouse, 2 times a week.

Take `O=c1[nH]c(=O)c2c[nH]nc2[nH]1` [Oxypurinol]: in test [1], the “% of CD69 expression in CD3+ transfectants, Concentration 2” value (shortened to “% of CD69 expression … Concentration 2”) amounted to 22.9% and the “% of CD69 expression in CD3+ transfectants, Concentration 3” value (“% of CD69 expression … Concentration 3” below) is listed as 39.6%. Also, in test [2], the “% of CD69 expression … Concentration 2” value is on record as 5.0% and the “% of CD69 expression … Concentration 3” value is recorded as 5.75%.

With Daratumumab, the “GVHD development, higher regimen” value in the test with human CD38+CD8+ T cells (setting [6]) was “failed to prevent GVDH development”. Further, the “T cell expansion, higher regimen” value with human CD38+CD8+ T cells (setting [6]) is reported as “transiently inhibited T cell expansion”. The “expansion of human cells (ratio of humanization)” value with human CD38+CD8+ T cells (day 12, 7 days after the initial daratumumab injection, blood (FIG. 8)) was “transiently inhibited the expansion of human cells”; with human CD38+CD8+ T cells (day 19, 14 days after the initial daratumumab injection) it was “inhibition was lost”. Besides, the “development of the GVHD” value in the test on human CD38+CD8+ T cells (day 28, two-weekly injections, 100 or 300 microg/mouse) is recorded as “failed to hamper the development of the GVHD”. Further, the “human CD38+CD8+ T cell levels in blood” value in the test on human CD38+CD8+ T cells (murine GVHD model) is on record as “reduction of human CD8+CD38+ T cell levels in blood; also recorded: reduction of human CD38+CD8+ T cells levels in blood”. Further, in the test on human CD38+CD8+ T cells (two-weekly injections, 100 or 300 microg/mouse, spleen, flow cytometry, 28 days after PBMCs injection (FIG. 7), preliminary experiments), the “depletion of CD38+ cells (CD38+ fraction among human CD8+ T cells)” value is on record as “depleted CD38+ cells”. Moreover, the “depletion of already expanded CD38+ cells (CD8+CD38+ T cells)” value in test [3] is “acutely depleted the CD38+ cells that have already expanded”; in test [3] (listed as Daratumamub) it was “efficiently depleted”. The results for the “depletion of cytotoxic CD8+CD38+Granzyme B+Granulysin+ T cell subset” value in test [3] and in test [3] (listed as Daratumamub) were “acutely depleted” and “efficiently depleted”, respectively. Moreover, the “expansion of T cell subsets which do not express CD38 marker” value in test [3] (preventive mode, from day 4 (FIG. 13B)) is listed as “did not avoid the progressive expansion of some T cell subsets”. The “formation/expansion of cytotoxic CD8+CD38+Granzyme B+Granulysin+ T cell subset” value in test [3] (preventive mode, from day 4) is given as “preventing the formation of cytotoxic CD8+CD38+Granzyme B+Granulysin+ T cell subset”; in test [3] (preventive mode, from day 4, listed as Daratumamub), “strongly inhibited the expansion”. The “accumulation of cytotoxic T cells (total CD8+GranzymeB+Granulysin+)” value in test [3] (preventive mode, from day 4, blood (FIG. 15B)) is “severely impaired the accumulation of cytotoxic T cells”. In test [3] (preventive mode, from day 4, versus control isotype (FIG. 14)), the “global T cell expansion (CD4+ and CD8+ T cells/mL blood)” value was “Lower expansion; also recorded: dramatically delayed and impaired the global T cell expansion”. For the same compound, the “formation/expansion of CD4+CD38+ and CD8+CD38+ T cells” value in test [3] was “efficiently and extensively prevented the formation of CD4+CD38+ and CD8+CD38+ T cells”; in test [3] (listed as Daratumamub), “blocked the expansion”. Moreover, the “depletion of cytotoxic cells expressing the TCRVbeta7.1+ chain (CD8+Vbeta7.1+ T cells)” value is “strong depletion” in test [3] (preventive mode) and “preferentially depleted” in test [3] (preventive mode, listed as Daratumamub).

Consider `Oc1ncnc2[nH]ncc12` [Allopurinol], for which, in test [1], the “% of CD69 expression … Concentration 2” value is reported as 2.2% and the “% of CD69 expression … Concentration 3” value came to 3.05%. Also, in test [2], the “% of CD69 expression … Concentration 2” value came to 17.1% and the “% of CD69 expression … Concentration 3” value is reported as 26.4%.

With `Cc1ncc([N+](=O)[O-])n1CCO` [Metronidazole], in test [4], the “CD69 expression response of transduced Skw3 cells to drug (in words)” value was “failed to respond”; the “% of CD69 expression in CD3+ transfectants, Concentration 1” value (from here on “% of CD69 expression … Concentration 1”) is listed as 5.7%; the “% of CD69 expression … Concentration 2” value was determined as 5.4%; the “% of CD69 expression … Concentration 3” value was found to be 6.0%. The “CD69 expression response of transduced Skw3 cells to drug (in words)” value in test [4] (listed as metronidazole) is on record as “failed to detect robust CD69+ expression”.

For `Nc1nc(NC2CC2)c2ncn([C@H]3C=C[C@@H](CO)C3)c2n1` [Abacavir], the “% of CD69 expression … Concentration 1” value in test [5] (Abacavir 1 μg/ml, Pantoprazole 12.5 μg/ml) stood at 93.2%. Moreover, the “% of CD69 expression … Concentration 2” value in test [5] (Abacavir 10 μg/ml, Pantoprazole 25 μg/ml) worked out at 88.9%. Moreover, the “% of CD69 expression … Concentration 3” value in test [5] (Abacavir 20 μg/ml, Pantoprazole 50 μg/ml) is 93.1%.

Take `C[C@H]1COc2c(N3CCN(C)CC3)c(F)cc3c(=O)c(C(=O)O)cn1c23` [Levofloxacin]: in test [4], the “% of CD69 expression … Concentration 1” value is given as 5.6%; the “% of CD69 expression … Concentration 2” value was 5.4%; the “% of CD69 expression … Concentration 3” value amounted to 4.4%.

Take `Cc1cc(NS(=O)(=O)c2ccc(N)cc2)no1` [Sulfamethoxazole]: in test [1], the “% of CD69 expression … Concentration 2” value amounted to 1.3% and the “% of CD69 expression … Concentration 3” value is 1.4%.
